Experimental data published in patent publication US20260285853A1, “COMPOUNDS AND METHODS FOR MODULATING SPLICING” (REMIX THERAPEUTICS INC., priority 2023, published 2026).
Counter-ions that a name gives are not always drawn.

Legend:
Type in all cases: cell-based
HTT mRNA [1] = assay: Splicing RT-qPCR assay, canonical (CJ) and alternative (AJ) junction mRNA, K562 cells; conditions: Homo sapiens, K562.3 cells, 24 hours; for AC50: read-out: HTT AJ (AC50, increase in AJ mRNA); for IC50: read-out: HTT CJ (IC50, decrease in CJ mRNA)
How it was run: (§1)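 K562 cells were treated for 24 h at 37 °C with an 11-point 3-fold dilution series (top 10 uM final, DMSO ≤0.25%), then lysed for one-step RT-qPCR of canonical and alternative junctions. ΔΔCt was taken against GAPDH or GUSB and DMSO, converted to RQ by 2^(−ΔΔCt), then to % response.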

MYB mRNA [2] = assay: as above; conditions: Homo sapiens, K562.3 cells, 24 hours; for AC50: read-out: MYB AJ (AC50, increase in AJ mRNA); for IC50: read-out: MYB CJ (IC50, decrease in CJ mRNA)
How it was run: as §1

HTT mRNA [3] = assay: Splicing RT-qPCR assay (THP), Table 2A
MYB mRNA [4] = assay: Splicing RT-qPCR assay (THP), Table 2A
[5] = Table 2A (THP), AJ mRNA increase, read-out: HTT AJ (increase in alternative junction mRNA, AC50)
[6] = Table 2A (THP), CJ mRNA decrease, read-out: HTT CJ (decrease in canonical junction mRNA, IC50)
[7] = Table 2A (THP), AJ mRNA increase, read-out: MYB AJ (increase in alternative junction mRNA, AC50)
[8] = Table 2A (THP), CJ mRNA decrease, read-out: MYB CJ (decrease in canonical junction mRNA, IC50)
[9] = Table 2A, THP, HTT alternative junction (AJ) mRNA, read-out: HTT AJ (AC50, increase in alternative junction mRNA)
[10] = Table 2A, THP, HTT canonical junction (CJ) mRNA, read-out: HTT CJ (IC50, decrease in canonical junction mRNA)
[11] = Table 2A, THP, MYB alternative junction (AJ) mRNA, read-out: MYB AJ (AC50, increase in alternative junction mRNA)
[12] = Table 2A, THP, MYB canonical junction (CJ) mRNA, read-out: MYB CJ (IC50, decrease in canonical junction mRNA)

Compound	IC50 (HTT mRNA [1])	IC50 (MYB mRNA [2])	IC50 (HTT mRNA [3]; [6])	IC50 (MYB mRNA [4]; [8])	IC50 (HTT mRNA [3]; [10])	IC50 (MYB mRNA [4]; [12])	AC50 (HTT mRNA [1])	AC50 (MYB mRNA [2])	AC50 (HTT mRNA [3]; [5])	AC50 (MYB mRNA [4]; [7])	AC50 (HTT mRNA [3]; [9])	AC50 (MYB mRNA [4]; [11])
CCNC1CCN(c2ccc(C(=O)Nc3cc(F)c4nc(C)cn4c3)c3nn(C)nc23)CC1 [Compound 196, 7-[4-(ethylamino)piperidin-1-yl]-N-(8-fluoro-2-methyl-imidazo[1,2-a]pyridin-6-yl)-2-methyl-1,2,3-benzotriazole-4-carboxamide]	0.1 to 1 µM	0.1 to 1 µM	0.1 to 1 µM	0.1 to 1 µM	–	–	0.1 to 1 µM	0.1 to 1 µM	0.1 to 1 µM	0.1 to 1 µM	–	–
COc1c(NC(=O)c2ncc(N3CCNCC3)c3cn[nH]c23)cn2cc(C)nc2c1F [Compound 606, N-(8-fluoro-7-methoxy-2-methyl-imidazo[1,2-a]pyridin-6-yl)-4-piperazin-1-yl-1H-pyrazolo[3,4-c]pyridine-7-carboxamide]	> 10 µM	> 10 µM	–	–	> 10 µM	1 to 10 µM	> 10 µM	> 10 µM	–	–	> 10 µM	1 to 10 µM
CCNC1CCN(c2ccc(C(=O)Nc3ccc4nc(C)cn4c3)c3nn(C)cc23)CC1 [Compound 176, 4-[4-(ethylamino)-1-piperidyl]-2-methyl-N-(2-methylimidazo[1,2-a]pyridin-6-yl)-indazole-7-carboxamide]	1 to 10 µM	0.1 to 1 µM	> 10 µM	0.1 to 1 µM	–	–	> 10 µM	0.1 to 1 µM	1 to 10 µM	0.1 to 1 µM	–	–
Cc1cn2cc(NC(=O)c3ccc(N4CCNCC4=O)c4cn(C)nc34)cc(F)c2n1 [Compound 251, N-(8-fluoro-2-methylimidazo[1,2-a]-pyridin-6-yl)-2-methyl-4-(2-oxopiperazin-1-yl)-2H-indazole-7-carboxamide 2,2,2-trifluoroacetate]	> 10 µM	> 10 µM	> 10 µM	> 10 µM	–	–	> 10 µM	> 10 µM	> 10 µM	> 10 µM	–	–
COCC1(N[C@@H]2CCN(c3ccc(C(=O)Nc4cc(F)c5nc(C)cn5c4)c4nn(C)cc34)C2)CC1 [Compound 119, (R)—N-(8-fluoro-2-methylimidazo[1,2-a]pyridin-6-yl)-4-(3-((1-(methoxymethyl)cyclopropyl)amino)-pyrrolidin-1-yl)-2-methyl-2H-indazole-7-carboxamide]	1 to 10 µM	0.1 to 1 µM	> 10 µM	0.1 to 1 µM	–	–	> 10 µM	0.1 to 1 µM	> 10 µM	0.1 to 1 µM	–	–
Cc1cn2cc(NC(=O)c3ccc(C4CNCCO4)c4[nH]cnc34)cc(F)c2n1 (stereo not drawn) [Compound 194, N-(8-fluoro-2-methyl-imidazo[1,2-a]pyridin-6-yl)-7-morpholin-2-yl-1H-benzimidazole-4-carboxamide]	1 to 10 µM	0.1 to 1 µM	1 to 10 µM	0.1 to 1 µM	–	–	1 to 10 µM	0.1 to 1 µM	> 10 µM	0.1 to 1 µM	–	–
Cc1cn2cc(NC(=O)c3ccc(N4C[C@@H](C)N[C@@H](C)C4)c4c3nnn4C)cc(F)c2n1 [Compound 635]	1 to 10 µM	0.1 to 1 µM	–	–	1 to 10 µM	0.1 to 1 µM	1 to 10 µM	0.1 to 1 µM	–	–	1 to 10 µM	0.1 to 1 µM

The next lines start with results.

IC50 (HTT mRNA [1])	IC50 (MYB mRNA [2])	IC50 (HTT mRNA [3]; [6])	IC50 (MYB mRNA [4]; [8])	IC50 (HTT mRNA [3]; [10])	IC50 (MYB mRNA [4]; [12])	Compound	AC50 (HTT mRNA [1])	AC50 (MYB mRNA [2])	AC50 (HTT mRNA [3]; [5])	AC50 (MYB mRNA [4]; [7])	AC50 (HTT mRNA [3]; [9])	AC50 (MYB mRNA [4]; [11])
> 10 µM	0.1 to 1 µM	1 to 10 µM	0.1 to 1 µM	–	–	CCNC1CCN(c2ccc(C(=O)Nc3cc(F)c4nc(CO)cn4c3)c3nn(C)cc23)CC1 [Compound 193, 4-[4-(ethylamino)-1-piperidyl]-N-[8-fluoro-2-(hydroxymethyl)imidazo[1,2-a]pyridin-6-yl]-2-methyl-indazole-7-carboxamide]	> 10 µM	1 to 10 µM	1 to 10 µM	0.1 to 1 µM	–	–
1 to 10 µM	0.1 to 1 µM	1 to 10 µM	0.1 to 1 µM	–	–	CO[C@H]1C[C@H](N[C@H]2CCN(c3ccc(C(=O)Nc4cc(F)c5nc(C)cn5c4)c4nn(C)cc34)C2)C1 [Compound 275, N-(8-fluoro-2-methylimidazo[1,2-a]pyridin-6-yl)-4-((S)-3-(((1r,3S)-3-methoxycyclobutyl)amino)pyrrolidin-1-yl)-2-methyl-2H-indazole-7-carboxamide]	1 to 10 µM	0.1 to 1 µM	1 to 10 µM	0.1 to 1 µM	–	–
> 10 µM	> 10 µM	> 10 µM	> 10 µM	–	–	Cc1cn2cc(NC(=O)c3ccc(N4C[C@@H](C)N[C@@H](C)C4)c4[nH]nnc34)cc(F)c2n1 [Compound 243, 7-((3S,5R)-3,5-dimethylpiperazin-1-yl)-N-(8-fluoro-2-methylimidazo[1,2-a]pyridin-6-yl)-1H-benzo[d][1,2,3]-triazole-4-carboxamide hydrochloride]	> 10 µM	> 10 µM	> 10 µM	> 10 µM	–	–
1 to 10 µM	< 0.1 µM	1 to 10 µM	< 0.1 µM	–	–	CCNC1CCN(c2ccc(C(=O)Nc3cc(F)c4nc(CF)cn4c3)c3nn(C)cc23)CC1 [Compound 202, 4-[4-(ethylamino)-1-piperidyl]-N-[8-fluoro-2-(fluoromethyl)imidazo[1,2-a]pyridin-6-yl]-2-methyl-indazole-7-carboxamide]	1 to 10 µM	0.1 to 1 µM	0.1 to 1 µM	< 0.1 µM	–	–
0.1 to 1 µM	0.1 to 1 µM	1 to 10 µM	0.1 to 1 µM	–	–	Cc1cn2cc(NC(=O)c3ccc(C4CCC(NC5CC5)CC4)c4cn(C)nc34)cc(F)c2n1 (stereo not drawn) [Compound 192, 4-[4-(cyclopropylamino)cyclohexyl]-N-(8-fluoro-2-methyl-imidazo[1,2-a]pyridin-6-yl)-2-methyl-indazole-7-carboxamide]	1 to 10 µM	0.1 to 1 µM	1 to 10 µM	0.1 to 1 µM	–	–
0.1 to 1 µM	< 0.1 µM	0.1 to 1 µM	< 0.1 µM	–	–	Cc1cn2cc(NC(=O)c3ccc(N4CCC(NC5CC56CC6)CC4)c4cn(C)nc34)cc(F)c2n1 (stereo not drawn) [Compound 203, N-(8-fluoro-2-methyl-imidazo[1,2-a]-pyridin-6-yl)-2-methyl-4-[4-(spiro[2.2]pentan-2-ylamino)-1-piperidyl] indazole-7-carboxamide]	1 to 10 µM	< 0.1 µM	0.1 to 1 µM	< 0.1 µM	–	–
1 to 10 µM	0.1 to 1 µM	1 to 10 µM	0.1 to 1 µM	–	–	Cc1cn2cc(NC(=O)c3ccc(N4CCNC(C(F)F)C4)c4cn(C)nc34)cc(F)c2n1 (stereo not drawn) [Compound 249, 4-[3-(difluoromethyl)piperazin-1-yl]-N-(8-fluoro-2-methylimidazo[1,2-a]pyridin-6-yl)-2-methyl-indazole-7-carboxamide]	1 to 10 µM	0.1 to 1 µM	> 10 µM	0.1 to 1 µM	–	–
> 10 µM	> 10 µM	> 10 µM	> 10 µM	–	–	CCNC1CCN(c2ccc(C(=O)Nc3cc(F)c4nc(C)cn4c3)c3c2nnn3C)CC1 [Compound 198, 4-(4-(ethylamino)piperidin-1-yl)-N-(8-fluoro-2-methylimidazo[1,2-a]pyridin-6-yl)-1-methyl-1H-benzo[d][1,2,3]triazole-7-carboxamide 2,2,2-trifluoroacetate]	> 10 µM	> 10 µM	> 10 µM	> 10 µM	–	–
> 10 µM	> 10 µM	> 10 µM	> 10 µM	–	–	Cc1nc2c(F)cc(NC(=O)c3ccc(N4CCC(NC5CC5)CC4)c4cn(C)nc34)cn2c1C [Compound 189, 4-[4-(cyclopropylamino)-1-piperidyl]-N-(8-fluoro-2,3-dimethyl-imidazo[1,2-a]pyridin-6-yl)-2-methyl-indazole-7-carboxamide]	> 10 µM	> 10 µM	0.1 to 1 µM	> 10 µM	–	–
0.1 to 1 µM	< 0.1 µM	0.1 to 1 µM	< 0.1 µM	–	–	CN[C@@H]1CCN(c2ccc(C(=O)Nc3cc(F)c4nc(C)cn4c3)c3nn(C)cc23)[C@@H]1C (single isomer, unassigned) [Compound 153]	1 to 10 µM	< 0.1 µM	0.1 to 1 µM	< 0.1 µM	–	–
> 10 µM	> 10 µM	> 10 µM	1 to 10 µM	–	–	COc1cc(N2CCNCC2)c2cn(C)nc2c1C(=O)Nc1cc(F)c2nc(C)cn2c1 [Compound 250, N-(8-fluoro-2-methyl-imidazo[1,2-a]pyridin-6-yl)-6-methoxy-2-methyl-4-piperazin-1-yl-indazole-7-carboxamide]	> 10 µM	> 10 µM	> 10 µM	1 to 10 µM	–	–
